# Results reported in patent US9732059B2, “Methods of use of cyclic amide derivatives to treat schizophrenia” (Minerva Neurosciences, Inc., priority 2010, dated 2017).
# “Also recorded” adds a separate entry of the source.
# What was measured:
# schizophrenic patients = assay: Polysomnographic (PSG) sleep recording in a sub-group of patients; assay type: in vivo, human
# Excerpt: 3. Exploratory: In a sub-group of patients, polysomnographic sleep continuity and sleep architecture parameters.
# 2. Secondary efficacy variables: Same method for the PANSS total and sub-scores at three months of treatment, BACS, DAI-10, MADRS, HAMA, and PSQI on the Full Analysis Set (FAS). Last Observation Carried Forward (LOCF) procedure used for missing data imputation. Analysis of variance (ANOVA) for the Readiness for Discharge Questionnaire (RDQ) at 14 days. Wilcoxon rank sum test for CGI-S. Descriptive statistics and graphical presentation on changes from baseline on FAS. Efficacy analyses (ANCOVA) additionally performed on the Per Protocol Set. Supportive exploratory analysis on PANSS using longitudinal, likelihood-based, mixed-effect model on FAS without missing data imputation. On a subtest of patients, polysomnographic (PSG) recording parameters analyzed using descriptive statistics and ANCOVA on changes from baseline.
# Polysomnographic recordings took place in a sub-group of patients. Sleep was recorded from 11:00 pm to 7:00 am on D-1 after a habituation night (baseline condition) and on D14. Analyses regarding sleep continuity, stage distribution, and stage profile parameters were exploratory. The treatment differences on each of these sleep parameters were analyzed using D14 values with ANOVAs and ANCOVAs with country and treatment as main effects and baseline as covariate.
# Among the 33 patients who had performed a PSG recording at visit lead-in day-1, 19 received placebo and 14 received the study treatment. Among these, […] experienced technical problem and/or insomnia during baseline and/or treatment night and were therefore excluded from the analysis. Finally, 20 patients were included in the analysis set of ANOVA and 19 patients were included in the analysis set of ANCOVA, and according to the SAP, only ANCOVA results were taken into account and are further discussed in the next sections.
# [1] = system: patients with DSM-IV schizophrenia; assay: Phase 2 clinical study: safety (extrapyramidal symptoms, adverse events, QT interval); assay type: in vivo, human
# Description: (§1) The study was designed to test the therapeutic efficacy of the compound of formula II on all dimensions of schizophrenic disease (E.g., positive, negative, and general symptoms, cognition, sleep, mood and anxiety). The study also examined the safety of the administered doses of the compound of formula II (also referred to herein as CYR-101), including heart repolarization (i.e., QT interval), weight change, adverse events, prolactin, and extrapyramidal symptoms).
# (§2) CYR-101 8 mg oral sustained release (SR) tablet, oral administration of 1, 2, or 4 tablets (8, 16 or 32 mg of CYR-101) was administered twice daily in fed condition. During the dose adjustment period, CYR-101 was administered orally, twice a day in the morning and in the evening, at the daily dose of 16 mg for two days, then titrated up every two days to 32 mg and 64 mg respectively. During the fixed-dose period, the optimal adjusted dose evaluated for each patient or the maximum daily dose of 64 mg of CYR-101 was administered. In one aspect of the study, the dosage of compound was titrated up to 32 mg b.i.d.
# 4. Safety: 12-lead ECG, adverse event (AE) recording, vital signs, physical examination, weight and waist circumference, safety lab tests, evaluation of extra-pyramidal symptoms (measured by Simpson and Angus scale), and prolactin levels.
# 3. Safety: Descriptive statistics on the safety set for extent of exposure, adverse events recording, safety lab tests, 12-lead ECG parameters, vital signs, and physical examination, weight and waist circumference, extra-pyramidal symptoms, prolactin levels.
# 5-HT2A = 5-HT2A (Homo sapiens, UniProt P28223); settings: known: dual 5-HT2A/sigma 2; cited from earlier work
# Chain of 5-HT2A (P28223 whole entry, species assumed): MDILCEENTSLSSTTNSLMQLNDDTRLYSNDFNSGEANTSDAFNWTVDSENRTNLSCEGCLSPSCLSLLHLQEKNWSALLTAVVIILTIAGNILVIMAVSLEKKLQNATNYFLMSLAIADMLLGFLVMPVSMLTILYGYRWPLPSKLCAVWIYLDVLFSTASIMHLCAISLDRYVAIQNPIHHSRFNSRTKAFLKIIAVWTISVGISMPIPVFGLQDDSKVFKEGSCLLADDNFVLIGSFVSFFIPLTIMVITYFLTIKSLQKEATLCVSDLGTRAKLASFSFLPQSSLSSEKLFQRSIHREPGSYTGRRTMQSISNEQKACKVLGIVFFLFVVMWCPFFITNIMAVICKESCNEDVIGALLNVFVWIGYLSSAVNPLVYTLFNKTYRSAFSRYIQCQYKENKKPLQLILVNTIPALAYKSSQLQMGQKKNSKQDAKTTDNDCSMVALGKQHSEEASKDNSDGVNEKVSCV
# [2] = system: patients with DSM-IV schizophrenia; assay: Phase 2 double-blind, randomized, placebo-controlled proof of concept study: efficacy scales (PANSS, CGI-S, DAI-10, PSQI, BACS, MADRS, HAMA); assay type: in vivo, human
# Description: A study was conducted using the compound of formula II, to examine the efficacy on schizophrenia and treatment of symptoms of schizophrenia. The study was a multi-center, inpatient and ambulatory, phase 2, double-blind, randomized, placebo-controlled proof of concept study of the compound of formula II in patients with DSM-IV schizophrenia. The study used 21 centers across three different countries.
# as §1
# The study was conducted for a time period of three months.
# The objectives of the study included the following: • 1. Evaluate the efficacy versus placebo of CYR-101 on global PANSS score and sub-scores after one month (28 days+/− 2 days) of treatment • 2. […] Evaluate the efficacy versus placebo of CYR-101 as assessed by the CGI-S after one and three months of treatment • 4. Evaluate subjective efficacy in patients of CYR-101 versus placebo as assessed by the Drug Attitude Inventory-10 (DAI-10) after one and three months of treatment • 5. Evaluate subjective sleep quality as assessed by Pittsburgh Sleep Quality Index (PSQI) after three month of treatment • 6. Explore the efficacy versus placebo of CYR-101 on cognitive function as measured by BACS (Brief Assessment of Cognition in Schizophrenia) scale after one and three months of treatment • 7. Evaluate the efficacy versus placebo of CYR-101 in depressive symptoms as measure by the Montgomery-Asberg Depression Rating Scale (MADRS) total score after one month of treatment • 8. Evaluate the efficacy versus placebo of CYR-101 in anxiety as measured by the Hamilton Anxiety Scale (HAMA) total score after one month of treatment • 9. Assess cardio-vascular safety (particularly ventricular repolarisation as assessed by QT/QTc interval measurements) of CYR-101 compared with placebo • 10. Assess the global safety and tolerability of CYR-101 compared with placebo • 11. Determine the pharmacokinetics of CYR-101 in schizophrenic patients
# as §2
# During the lead-in period, oral administration of 1 placebo SR tablet was conducted twice a day for 3 days. During the dose adjustment and fixed-dose periods, oral administration of 1, 2, or 4 placebo SR tablets was used twice daily as performed for the test product.
# The resulting data was analyzed one of three ways: 1.) Safety set; 2.) Full analysis set, with each patient having at least one PANSS evaluation after treatment initiation included in the efficacy analysis. The LOCF method is used; and 3.) Per protocol set, where for certain analyses, all patients having completed three months of treatment are included. ANCOVA followed by a contrast analysis at each time point were applied and in some cases, a non-parametric Wilcoxon test was used.
# 1. Primary: PANSS total score and sub-scores, after one month of treatment
# 2. […]
# sigma 2 receptor = sigma 2 receptor (Homo sapiens, UniProt Q5BJF2); settings: cited from earlier work
# Chain of sigma 2 receptor (Q5BJF2 whole entry, species assumed): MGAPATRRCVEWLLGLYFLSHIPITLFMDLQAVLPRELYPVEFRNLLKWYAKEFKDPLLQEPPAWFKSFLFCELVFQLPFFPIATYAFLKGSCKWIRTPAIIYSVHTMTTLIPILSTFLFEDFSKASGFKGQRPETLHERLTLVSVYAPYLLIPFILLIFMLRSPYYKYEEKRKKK
# dopamine = settings: known; cited from earlier work
# [3] = D14, ANCOVA contrast, not statistically significant
# [4] = D14, ANCOVA, no significant treatment effect
# [5] = D14, not statistically significant
compound,measurement,setting,value
"O=C(CN1CCC(CN2Cc3ccccc3C2=O)CC1)c1ccc(F)cc1 [CYR-101, 2-[[1-[2-(4-Fluorophenyl)-2-oxoethyl]piperidin-4-yl]methyl]isoindolin-1-one]",Decrease of sleep efficiency index (SEI) compared to placebo,schizophrenic patients; [3],2.4%
same,Decrease of total sleep time (TST) compared to placebo,schizophrenic patients; [3],13.7 min
same,Increase of duration of wake after sleep onset (WASO) compared to placebo,schizophrenic patients; [3],26.6 min
same,Latency to persistent sleep,schizophrenic patients; [4],trend of improvement
same,Sleep onset latency,schizophrenic patients; [4],trend of improvement
same,REM sleep latency contrast,"schizophrenic patients; D14, non significant",appeared later
same,SWS latency contrast,"schizophrenic patients; D14, non significant",appeared sooner
same,Decrease of REM sleep in SPT2 and in SPT3,schizophrenic patients; [5],3.03%
same,Increase of REM sleep in the first third of SPT (REM_SPT1),schizophrenic patients; [5],1.4%
same,Slow Wave Sleep (SWS) compared to placebo,schizophrenic patients; [5],increased
same,Stage 1 (ST1) compared to placebo,schizophrenic patients; [5],decreased
same,Stage 2 (ST2 in min) compared to placebo,schizophrenic patients; [5],decreased
same,Total Time Awake (TTA) compared to placebo,schizophrenic patients; [5],increased
same,nonREM sleep (NREM) compared to placebo,schizophrenic patients; [5],increased
same,Decrease of SWS during the last third of SPT (SWS-SPT3) compared to placebo,"schizophrenic patients; D14, p<0.05",22.1%
same,Increase of SWS in the first third of SPT (SWS-SPT1) compared to placebo,"schizophrenic patients; D14, p<0.05",23.6%
same,REM sleep (REM) compared to placebo,"schizophrenic patients; D14, significant only for REM-TST (p<0.05)",decreased
same,Increase in the QT interval,"[1]; doses up to 32 mg b.i.d., stable over time, limits e.g. 10-15 milliseconds or less",did not cross clinically acceptable limits
same,"Emergence or worsening of extrapyramidal symptoms, CYR-101 vs placebo","[1]; human, in vivo",no significant difference
same,Number of SAE in the active treatment group,[1]; unlikely related to CYR-101 based on the patient history,one
same,Mode of action at 5-HT2A,5-HT2A,antagonist
same,"PANSS general psychopathology sub-score, treatment difference vs placebo","[2]; D28, FAS",no treatment difference
same,"PANSS positive sub-score, treatment difference vs placebo","[2]; D28, FAS",no treatment difference
same,"PANSS total score, change from baseline, treatment difference vs placebo","[2]; D28, FAS",no treatment difference
same,PANSS negative sub-score decrease,"[2]; D28, FAS, p<0.01",−1.9
same,"PANSS general psychopathology sub-score, treatment difference vs placebo","[2]; D28, PPC",no treatment difference
same,"PANSS positive sub-score, treatment difference vs placebo","[2]; D28, PPC",no treatment difference
same,"PANSS total score, treatment difference vs placebo","[2]; D28, PPC",no treatment difference
same,PANSS negative sub-score decrease,"[2]; D28, PPC, p<0.0010",−4.7
same,"PANSS general psychopathology sub-score, treatment difference vs placebo","[2]; D84, FAS",no significant treatment difference
same,"PANSS positive sub-score, treatment difference vs placebo","[2]; D84, FAS",no significant treatment difference
same,"PANSS total score, change from baseline, treatment difference vs placebo","[2]; D84, FAS",no significant treatment difference
same,PANSS negative sub-score point estimate decrease,"[2]; D84, FAS, p<0.01",−2.3
same,PANSS total score vs placebo,"[2]; D84, PPC, obvious switch on D56",favorable trend of CYR-101 over placebo
same,PANSS negative sub-score improvement,"[2]; D84, PPC, p<0.001, treatment difference vs placebo p=0.0581",−5.8
same,PANSS positive sub-score vs placebo,"[2]; D84, PPC, switch between D56 and D70",favorable trend of CYR-101 over placebo
same,PANSS general psychopathology sub-score vs placebo,"[2]; D84, PPC, switch on D70",favorable trend of CYR-101 over placebo
same,Cognitive performances assessed by BACS vs placebo,[2]; FAS,"no differences between the placebo group and the CYR-101 group, except for the Token motor task"
same,"MADRS Total change score, difference vs placebo","[2]; FAS and PPC, D28 and D84, reduction in both groups",not statistically significant
same,"CGI-S score, difference between CYR-101 and placebo","[2]; FAS, D28 and D84",no significant difference
same,HAMA total score change from baseline,"[2]; FAS, D28 and D84, non statistically significant",slight HAMA total score reduction
same,HAMA total score reduction,"[2]; PPC, D28, p=0.2920",−1.0
same,"BACS Token motor task, list learning task, verbal fluency vs placebo","[2]; PPC, D84, descriptive data, not statistically significant",slight difference in favor of CYR-101 group; also recorded: slight difference in favour of CYR-101 group
same,HAMA total score reduction,"[2]; PPC, D84, p=0.0642",−2.9
same,CGI-S mean difference score,"[2]; PPC, from D56 until D84",non significant but an interesting switch in favor of CYR-101
same,"Improvement of negative symptoms, onset",[2]; course of treatment,observed immediately
same,"Improvement of positive symptoms, onset",[2]; course of treatment,did not improve until after the first four weeks of treatment
same,Duration of improvement in both positive and negative symptoms,[2]; in vivo,continued for more than twelve weeks
same,Effect on cognition in schizophrenic patients,[2]; in vivo,positive effect on cognition
same,"DAI-10 total score change from baseline, difference between groups","[2]; to D28 and D84, FAS and PPC",no statistically significant difference
same,Receptor binding selectivity,sigma 2 receptor,sigma 2-selective receptor binding
same,Dopamine binding properties,dopamine,devoid of dopamine binding properties
